Data reported in patent EP1144365B1 (TANABE SEIYAKU CO., LTD., priority 1998, dated 2000).
pIC50: −log10 of the molar value.

Tests used:
α4β1 = biological target: T1, α4β1 (Homo sapiens, UniProt P05556+P13612); assay: Jurkat-CS-1 assay; type: cell-based; conditions: Jurkat cell adhesion to immobilized CS-1 derived peptide
T1 construct: 100 µl of Jurkat cells (2.5 x 10^6 cells/ml) in DMEM plus BSA; host or cells: Jurkat T-cell line
Experimental: The CS-1 derived peptide, CLHPGEILDVPST, and the scrambled control peptide, CLHGPIELVSDPT, were synthesized on a Beckman 990 synthesizer using t-Boc methodology. The peptides were immobilized onto microtiter plates using the heterobifunctional crosslinker 3-(2-pyridyldithio)propionic acid N-hydroxysuccinimide ester (SPDP) as reported by Pierschbacher et al., Proc. Natl. Acad. USA, 80:1224-1227 (1983). Microtiter plates were coated with 20 µg/ml HSA for 2 hr. at room temperature, washed once with PBS and derivatized with 10 µg/ml SPDP for 1 hr. After washing, 100 µl of a 100 µg/ml cysteine containing peptide solution which had been recently dissolved was added to the wells and allowed to crosslink to the plates overnight at 4 °C. Unbound peptide was removed from plates by washing with PBS. To block non-reacted sites, the plates are coated with 100 µl of a 2.5 mg/ml BSA solution in PBS for 1 hr. at 37 °C. 100 µl of Jurkat cells (2.5 x 10^6 cells/ml) in DMEM plus BSA (2.5 mg/ml) was mixed with an appropriate concentration of the compound to be tested and the mixture was added to peptide coated dishes and incubated for 1 hr. at 37 °C. Generally 100, 20, 5 and 1.25 µM concentrations of the compound were tested.
Following this incubation the plates were washed once with PBS and the attached cells were fixed with 3% paraformaldehyde in PBS and stained with 0.5% toluidine blue in 3.7% formaldehyde. The cells were stained overnight at room temperature and the optical density at 590 nm of toluidine blue stained cells was determined using a vertical pathway spectrophotometer to quantitate attachment (VMAX Kinetic Microplate Reader, Molecular Devices, Menlo Park, CA). This procedure is a modification of a previously published method (Cardarelli et al, J. Biol. Chem., 269:18668-18673 (1994) and Cardarelli et al, Proc. Natl. Acad. Sci. USA, 83:2647-2651 (1986)).

α4β1 integrin = biological target: T2, α4β1 integrin (Homo sapiens, UniProt P05556+P13612); assay: Jurkat-Endothelial Cell Adhesion Assay (Jurkat EC); type: cell-based; conditions: Jurkat cell adhesion to IL-1 stimulated endothelial cell monolayers
T2 construct: a T-cell line, Jurkat, known to express the α4β1 integrin; host or cells: Jurkat T-cell line
Experimental: The following assay established the activity of the present compounds in inhibiting β1-mediated cell adhesion in a representative in vitro system. This assay measures the adhesive interactions of a T-cell line, Jurkat, known to express the α4β1 integrin, to endothelial monolayers in the presence of test compounds. The test compounds were added in increasing concentrations to T-cells and then the T-cell compound mixture was added to IL-1 stimulated endothelial cell monolayers. The plates were incubated, washed and the percentage of attached cells was quantitated.
Human umbilical vein endothelial cells were purchased from Clonetics (San Diego, CA.) at passage number 2. The cells were grown on 0.5% porcine skin gelatin pre-coated flasks (Sigma, St. Louis MO.) in EGM-UV media (Clonetics, San Diego, CA) supplemented with 10% fetal bovine serum. Cells are refed every 2-3 days reaching confluence by day 4 to 6. […] The endothelial cells are not used following passage 6.
The T-cell line Jurkat was obtained from American Type Tissue Culture Collection (Rockville, MD) and the cells were cultured in RPMI containing 10 % fetal calf serum. The cells were washed twice in Hank's Balanced Salt Solution (HBSS) and resuspended in Dulbecco's Minimal Eagle's Media (DMEM) containing 2.5 mg/ml Human Serum Albumin (HSA). Jurkat cells (1x10^6 cells/ml) were stained with 10 ng/ml BCECF-AM (Molecular Probes, Eugene, OR)) in HBSS without phenol red. The cells were loaded with BCECF for 60 minutes in the dark at 37°C, washed 2 times, and resuspended in DMEM-HSA solution.
Confluent endothelial monolayers, grown in 96-well tissue culture plates, were stimulated for 4 hr. at 37 °C with 0.1 ng/ml (∼50 U/ml) recombinant IL-1 (Amgen, Thousand Oaks, CA). Following this incubation, the monolayers were washed twice with HBSS and 0.1 ml of DMEM-HSA solution was added. Jurkat cells (5 x 10^5 cells) were combined with the appropriate concentration of the test compound and 0.1 ml of the Jurkat cell-compound mixture was added to the endothelial cell monolayers. Generally, 100, 20, 5 and 1.25 µM compound concentrations were tested. […] Following this incubation, the monolayers were washed twice with PBS containing 1 mM calcium chloride and 1 mM magnesium chloride' and the plates were read using a Millipore Cytofluor 2300 (Marlboro, MA.). Fluorescence in each well was measured as Arbitrary Fluorescence Units and percent adhesion in the absence of compound was adjusted to 100% and the % adhesion in the presence of compound was calculated. Monolayers were also fixed in 3% paraformaldehyde and evaluated microscopically to verify the adhesion. This procedure is a modification of a previously published method (Cardarelli et al., J. Biol. Chem. 269:18668-18673 (1994)).

T1 sequence (P13612 34-1032): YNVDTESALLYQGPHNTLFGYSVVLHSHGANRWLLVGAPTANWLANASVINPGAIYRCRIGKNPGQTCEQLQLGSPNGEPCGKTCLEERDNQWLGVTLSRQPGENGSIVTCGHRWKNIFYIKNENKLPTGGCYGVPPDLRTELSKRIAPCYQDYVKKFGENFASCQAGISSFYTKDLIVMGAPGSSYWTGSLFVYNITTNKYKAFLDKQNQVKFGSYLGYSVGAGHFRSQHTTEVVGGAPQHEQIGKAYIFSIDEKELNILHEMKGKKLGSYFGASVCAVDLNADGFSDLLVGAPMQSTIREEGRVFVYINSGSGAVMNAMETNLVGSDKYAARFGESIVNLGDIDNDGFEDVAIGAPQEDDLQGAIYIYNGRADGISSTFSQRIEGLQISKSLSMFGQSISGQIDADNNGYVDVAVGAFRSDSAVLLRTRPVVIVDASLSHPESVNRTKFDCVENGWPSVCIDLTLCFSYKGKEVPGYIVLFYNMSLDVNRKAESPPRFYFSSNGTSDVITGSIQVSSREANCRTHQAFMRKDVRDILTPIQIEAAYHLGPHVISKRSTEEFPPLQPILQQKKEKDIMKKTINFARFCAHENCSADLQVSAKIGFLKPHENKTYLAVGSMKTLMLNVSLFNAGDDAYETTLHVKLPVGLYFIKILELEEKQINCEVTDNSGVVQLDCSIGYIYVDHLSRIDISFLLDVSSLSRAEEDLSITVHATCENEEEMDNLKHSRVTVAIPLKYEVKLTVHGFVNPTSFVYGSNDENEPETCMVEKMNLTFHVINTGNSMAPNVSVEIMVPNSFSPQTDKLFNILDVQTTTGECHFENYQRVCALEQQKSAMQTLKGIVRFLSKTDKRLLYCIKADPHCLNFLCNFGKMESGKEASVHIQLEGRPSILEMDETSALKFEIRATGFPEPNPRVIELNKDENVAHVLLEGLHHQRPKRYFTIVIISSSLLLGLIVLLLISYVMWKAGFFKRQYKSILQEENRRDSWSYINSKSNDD
T1 sequence (P05556 21-798): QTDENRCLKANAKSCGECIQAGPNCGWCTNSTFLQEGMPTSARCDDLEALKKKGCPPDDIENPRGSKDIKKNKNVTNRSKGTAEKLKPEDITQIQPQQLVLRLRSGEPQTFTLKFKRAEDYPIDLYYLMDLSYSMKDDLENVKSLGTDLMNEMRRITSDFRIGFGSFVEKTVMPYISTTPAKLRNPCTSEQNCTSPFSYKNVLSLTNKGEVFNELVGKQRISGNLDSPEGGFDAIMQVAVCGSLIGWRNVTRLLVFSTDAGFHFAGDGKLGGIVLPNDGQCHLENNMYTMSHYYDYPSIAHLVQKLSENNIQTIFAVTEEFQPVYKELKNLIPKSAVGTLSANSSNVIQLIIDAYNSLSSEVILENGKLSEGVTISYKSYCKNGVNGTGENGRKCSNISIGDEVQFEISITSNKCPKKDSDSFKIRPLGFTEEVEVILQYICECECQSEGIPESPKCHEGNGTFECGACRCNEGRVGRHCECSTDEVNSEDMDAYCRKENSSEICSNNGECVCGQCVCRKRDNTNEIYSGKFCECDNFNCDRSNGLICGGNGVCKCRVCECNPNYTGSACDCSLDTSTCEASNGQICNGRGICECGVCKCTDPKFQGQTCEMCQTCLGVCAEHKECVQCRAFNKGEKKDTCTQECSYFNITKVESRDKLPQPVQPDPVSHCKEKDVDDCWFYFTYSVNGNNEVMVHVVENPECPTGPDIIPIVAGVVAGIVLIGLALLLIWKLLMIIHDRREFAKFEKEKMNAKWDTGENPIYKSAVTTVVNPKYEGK
T2 sequence (P13612 34-1032): as the sequence (P13612 34-1032) above
T2 sequence (P05556 21-798): as the sequence (P05556 21-798) above

Row | Compound | pIC50 (α4β1) | pIC50 (α4β1 integrin)
1 | O=C(O)CNC(=O)Nc1cccc(C(=O)N[C@@H](Cc2ccc(NC(=O)c3c(Cl)cccc3Cl)cc2)C(=O)O)c1 [Example 33, N-[3-[(N'-Carboxymethyl)ureido]benzoyl]-4-[(2,6-dichlorobenzoyl)amino]-L-phenylalanine] | 6.30 to 7.10 | 
2 | CC(=O)c1cccc(OC(C)C(=O)N[C@@H](Cc2ccc(NC(=O)c3c(Cl)cccc3Cl)cc2)C(=O)O)c1 (stereo partly shown) [Example 18] |  | 5.30 to 6.10
3 | O=C(N[C@@H](Cc1ccc(NC(=O)c2c(Cl)cccc2Cl)cc1)C(=O)O)c1ccc(O)c(CN2CCOCC2)c1 [Example 4] |  | 5.30 to 6.10
4 | O=C(Nc1ccc(CC(NC(=O)C2CCCCC2C(=O)O)C(=O)O)cc1)c1c(Cl)cccc1Cl (stereo not shown) [Example 8] |  | 5.30 to 6.10
5 | CC(Sc1ccccc1C(=O)O)C(=O)N[C@@H](Cc1ccc(NC(=O)c2c(Cl)cccc2Cl)cc1)C(=O)O (stereo partly shown) [Example 24] |  | 5.00 to 5.30
6 | O=C(O)c1cccc(OC(C(=O)N[C@@H](Cc2ccc(NC(=O)c3c(Cl)cccc3Cl)cc2)C(=O)O)c2ccccc2)c1 (stereo partly shown) [Example 16] |  | 5.30 to 6.10
7 | CC(Oc1ccccc1C(=O)O)C(=O)N[C@@H](Cc1ccc(NC(=O)c2c(Cl)cccc2Cl)cc1)C(=O)O (stereo partly shown) [Example 28] |  | 5.30 to 6.10
8 | CC1=C(C(=O)O)C(C)(C)CC/C1=C\C(=O)N[C@@H](Cc1ccc(NC(=O)c2c(Cl)cccc2Cl)cc1)C(=O)O [Example 121, N-[(1E)-3-Carboxy-2,4,4-trimethyl-2-cyclohexen-1-ylideneacetyl]-4-[(2,6-dichlorobenzoyl)amino]-L-phenylalanine] |  | 5.30 to 6.10
9 | O=C(Nc1ccc(C[C@H](NC(=O)N2CCCC[C@H]2C(=O)O)C(=O)O)cc1)c1c(Cl)cccc1Cl [Example 11] |  | 5.00 to 5.30
10 | CC(Oc1cccc(C(=O)O)c1)C(=O)N[C@@H](Cc1ccc(NC(=O)c2c(Cl)cccc2Cl)cc1)C(=O)O (stereo partly shown) [Example 14] |  | 5.30 to 6.10
11 | O=C(COc1ccc(C(=O)O)cc1)N[C@@H](Cc1ccc(NC(=O)c2c(Cl)cccc2Cl)cc1)C(=O)O [Example 12, N-[(4-carboxyphenoxy)acetyl]-4-[(2,6-dichlorobenzoyl)amino]-L-phenylalanine] | 6.00 to 6.30 | 
12 | CC(C)(Oc1cccc(/C=C/C(=O)O)c1)C(=O)N[C@@H](Cc1ccc(NC(=O)c2c(Cl)cccc2Cl)cc1)C(=O)O [Example 22] |  | 5.30 to 6.10
13 | CC(Oc1cccc(/C=C/C(=O)O)c1)C(=O)N[C@@H](Cc1ccc(NC(=O)c2c(Cl)cccc2Cl)cc1)C(=O)O (stereo partly shown) [Example 21] |  | 5.00 to 5.30
14 | CC(C)(Oc1cccc(C(=O)O)c1)C(=O)N[C@@H](Cc1ccc(NC(=O)c2c(Cl)cccc2Cl)cc1)C(=O)O [Example 15] |  | 5.30 to 6.10

Next, values leading:

Row | pIC50 (α4β1) | pIC50 (α4β1 integrin) | Compound
15 |  | 5.00 to 5.30 | CC1(C)[C@H](CC(=O)N[C@@H](Cc2ccc(NC(=O)c3c(Cl)cccc3Cl)cc2)C(=O)O)C[C@@H]1C(=O)O [Example 90, (1S-cis)-N-[(3-Carboxy-2,2-dimethylcyclobutyl)acetyl]-4-[(2,6-dichlorobenzoyl)amino]-L-phenylalanine]
16 | 6.30 to 7.10 | 5.30 to 6.10 | CC1(C)[C@@H](C(=O)N[C@@H](Cc2ccc(NC(=O)c3c(Cl)cccc3Cl)cc2)C(=O)O)C[C@H]1C(=O)O [Example 99, (1S-cis)-N-[(3-Carboxy-2,2-dimethylcyclobutyl)carbonyl]-4-[(2,6-dichlorobenzoyl)amino]-L-phenylalanine]
17 |  | 5.30 to 6.10 | CC(O)[C@@H]1C[C@H](CC(=O)N[C@@H](Cc2ccc(NC(=O)c3c(Cl)cccc3Cl)cc2)C(=O)O)C1(C)C (stereo partly drawn) [Example 92, [1R-(1α,3α)]-4-[(2,6-Dichlorobenzoyl)amino]-N-[[3-(1-hydroxyethyl)-2,2-dimethylcyclobutyl]acetyl]-L-phenylalanine]
18 | 6.00 to 6.30 | 5.30 to 6.10 | COC(=O)[C@H](Cc1ccc(NC(=O)c2c(Cl)cccc2Cl)cc1)NC(=O)c1cccc2c1CCC/C2=C/C(=O)O [Example 130, N-[[(5Z)-5-Carboxymethylene-7,8-dihydro-1(6H)-naphthyl]carbonyl]-4-[(2,6-dichlorobenzoyl)amino]-L-phenylalanine methyl ester]
19 | 6.00 to 6.30 |  | O=C(O)CNC(=O)NC1(C(=O)N[C@@H](Cc2ccc(NC(=O)c3c(Cl)cccc3Cl)cc2)C(=O)O)CCCCC1 [Example 54]
20 | 6.00 to 6.30 |  | O=C(O)c1cccc(C(=O)Nc2cccc(C(=O)N[C@@H](Cc3ccc(NC(=O)c4c(Cl)cccc4Cl)cc3)C(=O)O)c2)c1 [Example 42]
21 | 6.00 to 6.30 |  | CC(=O)CCC(=O)Nc1cccc(C(=O)N[C@@H](Cc2ccc(NC(=O)c3c(Cl)cccc3Cl)cc2)C(=O)O)c1 [Example 39]
22 |  | 5.30 to 6.10 | O=C(Nc1ccc(C[C@H](NC(=O)N2CCC(C(=O)O)CC2)C(=O)O)cc1)c1c(Cl)cccc1Cl [Example 113, 1-[[[(1S)-1-carboxy-2-[4-[(2,6-dichlorobenzoyl)amino]phenyl]ethyl]amino]carbonyl]-4-piperidinecarboxylic acid]
23 |  | 5.00 to 5.30 | O=C(/C=C1/CCCc2c(C(=O)O)cccc21)N[C@@H](Cc1ccc(NC(=O)c2c(Cl)cccc2Cl)cc1)C(=O)O [Example 137, N-[(1Z)-5-Carboxy-3,4-dihydro-1(2H)-naphthalenylideneacetyl]-4-[(2,6-dichlorobenzoyl)amino] -L-phenylalanine]
24 |  | 5.30 to 6.10 | CC1(C)[C@@H](C(=O)N[C@@H](Cc2ccc(OCc3c(Cl)cccc3Cl)cn2)C(=O)O)C[C@H]1C(=O)O (relative stereo) [Example 109, [1S-[1α(R*),3α]]-α-[[(3-Carboxy-2,2-dimethylcyclobutyl)carbonyl]amino]-3-[(2,6-dichlorophenyl)methoxy]-6-pyridinepropanoic acid]
25 | 6.00 to 6.30 |  | CC1(C)[C@@H](C(=O)N[C@@H](Cc2ccc(OCc3c(Cl)cccc3Cl)cc2)C(=O)O)C[C@H]1C(=O)O [Example 95, (1S-cis)-N-[(3-Carboxy-2,2-dimethylcyclobutyl)carbonyl]-4-[(2,6-dichlorophenyl)methoxy]-L-phenylalanine]
26 | 6.00 to 6.30 |  | O=C(Nc1ccc(C(=O)O)cc1)NC1(C(=O)N[C@@H](Cc2ccc(NC(=O)c3c(Cl)cccc3Cl)cc2)C(=O)O)CCCCC1 [Example 60]
27 | 6.00 to 6.30 |  | O=C(O)CCC(=O)Nc1cccc(C(=O)N[C@@H](Cc2ccc(NC(=O)c3c(Cl)cccc3Cl)cc2)C(=O)O)c1 [Example 34]
28 |  | 5.30 to 6.10 | CC1(C)[C@@H](C(=O)N[C@@H](Cc2ccc(NC(=O)c3ccc(Cl)nc3Cl)cc2)C(=O)O)C[C@H]1C(=O)O [Example 108, (1S-cis)-N-[(3-Carboxy-2,2-dimethylcyclobutyl)carbonyl] -4-[[(2,6-dichloro-3-pyridinyl)carbonyl]amino]-L-phenylalanine]
29 |  | 5.00 to 5.30 | O=C(N[C@@H](Cc1ccc(NC(=O)c2c(Cl)cccc2Cl)cc1)C(=O)O)c1cccc(NC(=O)c2ccccc2C(=O)O)c1 [Example 41]
